One data set has as its target T1, GRPR (Homo sapiens, UniProt P30550).
T1 construct: Known to overexpress GRPR, the PC-3 cell line, a human prostate cancer cell line; host or cells: PC-3 human prostate cancer cells
In words: Fluorometric intracellular calcium release assay in PC-3 cells. The format is cell-based. Particulars: 50 nM, n = 3. As to the method:
Following previously published procedures, 5 × 10^4 PC-3 cells in 100 μL of growth media were seeded per well in a 96-well clear-bottom black plate 24 h prior to the assay. A loading buffer (100 μL/well) containing a calcium-sensitive dye (FLIPR Calcium 6 assay kit) was added to the 96-well plate. After incubation at 37 °C for 2 h, the plate was placed in a FlexStation 3 microplate reader (Molecular Devices, San Jose, CA, USA). TacsBOMB2 derivatives (50 nM), [D-Phe^6,Leu-NHEt^13,des-Met^14]Bombesin(6-14) (50 nM, antagonist control), bombesin (50 nM, agonist control), adenosine triphosphate (ATP, 50 nM, positive control), or DPBS (blank control) was added, and the fluorescent signals were acquired for 2 min (λEx = 485 nm; λEm = 525 nm; n = 3). The relative fluorescent units (RFUs = max − min) were measured to determine the agonistic/antagonistic properties.

The subject of another data set is PC-3 tumor xenografts. As to conditions: mouse, in vivo, 1 h; cited from earlier work.

T1 sequence (P30550 whole entry): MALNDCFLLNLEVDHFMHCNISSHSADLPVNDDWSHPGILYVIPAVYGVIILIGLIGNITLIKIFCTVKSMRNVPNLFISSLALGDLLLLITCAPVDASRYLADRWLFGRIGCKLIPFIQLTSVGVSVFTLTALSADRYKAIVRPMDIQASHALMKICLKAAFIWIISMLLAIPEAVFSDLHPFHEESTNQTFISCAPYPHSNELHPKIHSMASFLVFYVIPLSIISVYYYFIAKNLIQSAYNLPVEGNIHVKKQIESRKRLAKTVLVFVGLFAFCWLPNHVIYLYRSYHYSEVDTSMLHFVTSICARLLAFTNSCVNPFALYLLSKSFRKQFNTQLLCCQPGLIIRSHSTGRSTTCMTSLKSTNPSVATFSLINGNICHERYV

Regarding `Nc1ncnc2c1ncn2[C@@H]1O[C@H](COP(=O)(O)OP(=O)(O)OP(=O)(O)O)[C@@H](O)[C@H]1O` [ATP, adenosine triphosphate], the “Ca2+ efflux” value on GRPR is reported as 222 ± 21.7 RFUs.
Same read-out and setting: then “[D-Phe^6,Leu-NHEt^13,des-Met^14]Bombesin(6-14)”, with 38.2 ± 7.20 RFUs.
Regarding “[^68Ga]Ga-DOTA-Pip-D-Phe^6-Gln^7-Trp^8-Ala^9-Val^10-Gly^11-His^12-Leu^13ψThz^14-NH2 [[^68Ga]Ga-TacsBOMB2]”, in the data set with PC-3 tumor xenografts, the Adrenal glands uptake was 0.57 ± 0.40 %ID/g, the Blood uptake was 0.76 ± 0.21 %ID/g, the Bone uptake is 0.19 ± 0.06 %ID/g and the Brain uptake was 0.05 ± 0.03 %ID/g. Moreover, in the data set on PC-3 tumor xenografts, the Fat uptake was 0.09 ± 0.03 %ID/g, the Heart uptake is reported as 0.27 ± 0.08 %ID/g, the Kidneys uptake is on record as 2.51 ± 0.59 %ID/g and the Large intestine uptake is 0.37 ± 0.16 %ID/g. Besides, in the data set on PC-3 tumor xenografts, the Liver uptake was 2.61 ± 0.70 %ID/g, the Lungs uptake was 0.75 ± 0.52 %ID/g, the Muscle uptake is 0.15 ± 0.05 %ID/g and the PC-3 tumor uptake was 10.2 ± 2.27 %ID/g. In the data set with PC-3 tumor xenografts, the Pancreas uptake is reported as 2.81 ± 0.78 %ID/g, the Small intestine uptake is 1.04 ± 0.30 %ID/g, the Spleen uptake is 0.47 ± 0.17 %ID/g and the Stomach uptake is recorded as 0.32 ± 0.08 %ID/g. For the same compound, in the data set with PC-3 tumor xenografts, the Testes uptake is recorded as 0.19 ± 0.05 %ID/g.
For bombesin, the “Ca2+ efflux” value at GRPR is on record as 499 ± 73.4 RFUs.

These data come from article PMC11124507, “Synthesis and Evaluation of Novel ^68Ga-Labeled [D-Phe^6,Leu^13ψThz^14]bombesin(6-14) Analogs for Cancer Imaging with Positron Emission Tomography” (Pharmaceuticals, 2024).
